Measurements as given in patent US8846951B2 (AbbVie Inc., priority 2009, dated 2014).
pEC50, pKi: −log10 of the molar value. Values joined by “and” are separate entries in the source; they are usually repeats but may differ in a detail not shown here. Equal entries are not always repeated. Where two headings read alike, the source gives them in different places.

Columns and labels:
[1] = molecular target: T1, human serotonin 5-HT2c receptor (Homo sapiens, UniProt P28335); assay: Human 5-HT2C receptor radioligand binding assay (agonist site, [125I]DOI); details: 5-HT2c agonist site; transfected CHO cell membranes; 0.2 nM [125I](±)DOI
T1 construct: expressed in transfected cells; host or cells: CHO cells (membrane homogenates)
T1 sequence (P28335 33-458): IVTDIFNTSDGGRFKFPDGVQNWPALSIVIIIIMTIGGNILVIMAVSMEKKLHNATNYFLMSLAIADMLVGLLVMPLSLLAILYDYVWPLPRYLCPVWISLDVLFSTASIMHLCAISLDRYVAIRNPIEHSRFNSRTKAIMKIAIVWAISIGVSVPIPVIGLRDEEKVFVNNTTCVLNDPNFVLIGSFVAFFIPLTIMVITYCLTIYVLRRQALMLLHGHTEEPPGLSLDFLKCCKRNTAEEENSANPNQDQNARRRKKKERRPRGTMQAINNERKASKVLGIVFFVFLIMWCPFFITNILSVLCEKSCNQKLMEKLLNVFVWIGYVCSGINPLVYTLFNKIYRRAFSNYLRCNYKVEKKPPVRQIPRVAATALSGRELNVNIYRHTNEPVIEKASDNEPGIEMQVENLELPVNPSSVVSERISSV
Experimental: (i) Human 5-HT2C Receptor Radioligand Binding Assay
Affinity of compounds for the agonist site of the […], receptor in transfected CHO cells was determined in a radioligand binding assay essentially as described by Bryant, H. U., et al., Life Sciences (1996) 59(15), 1259-1268.

5HT2C receptors [2] = molecular target: T2, 5HT2C receptors (Homo sapiens, UniProt P28335); assay: Human 5-HT2C functional assay in CHO-K1 cells (96-well, calcium, FLIPR); format: cell-based; parameters: expressed in transfected cells; details: 5-HT2c agonist activity, CHO-K1 cells stably transfected
T2 sequence (P28335 33-458): T1 sequence (P28335 33-458)
Experimental: (iv) Human 5-HT2C Functional Assay in CHO-K1 Cells
Functional activity was determined by testing the effect of the compounds on intracellular calcium levels in CHO-K1 cells stably transfected with the human 5-HT2C receptor. Cells were seeded into 96-well plates at 60,000 cells/well and grown overnight in tissue culture medium (UltraCHO™ (Lonza), containing 1% dFCS, 250 μg/mL Zeocin, 400 μg/mL Geneticin) at 37° C. and 5% CO2. Growth medium was replaced by medium without dFCS for overnight incubation. Cells were loaded with a fluorescent calcium-sensitive dye in the presence of probenicid according to the manufacturer's protocol (FLIPR Ca4 Assay kit, Molecular Devices). Serial compound dilutions (final concentrations 10^−10 to 10^−5 M) were added to the cells and the maximum calcium response was determined using a FLIPR instrument (Molecular Devices). Concentration-response curves were fitted using a four-parameter logistic equation (GraphPad Prism). The concentration at which the compound exerts half its maximal effect is named the ‘effective concentration 50’ or ‘EC50’ and is listed in Table 5.

5HT2C receptors [3] = molecular target: T2, 5HT2C receptors; assay: Human 5-HT2C functional high throughput screening assay in CHO-K1 cells (calcium flux); format: cell-based; parameters: expressed in transfected cells; host or cells: CHO-K1 cells; details: for Emax: 5-HT2C, maximum functional response as percentage relative to the effect of serotonin; for pEC50: CHO-K1 cells, calcium flux
In short: (§1)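 FLIPR calcium readout, ex 480/em 530 nm, 25 °C, 3 min post-addition; agonist response normalized to serotonin, 4-parameter fit → EC50, Emax (% serotonin). Cells: frozen CHO-K1 stable lines, serum-free overnight, Ca4 dye + 2.5 mM probenecid, 60 min RT dark.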

5HT2B receptors = molecular target: T3, 5HT2B receptors (Homo sapiens, UniProt P41595); assay: Human 5-HT2B functional high throughput screening assay in CHO-K1 cells (calcium flux); format: cell-based; details: for pEC50: CHO-K1 cells, calcium flux
T3 construct: expressed in transfected cells; host or cells: CHO-K1 cells
T3 sequence (P41595 whole entry): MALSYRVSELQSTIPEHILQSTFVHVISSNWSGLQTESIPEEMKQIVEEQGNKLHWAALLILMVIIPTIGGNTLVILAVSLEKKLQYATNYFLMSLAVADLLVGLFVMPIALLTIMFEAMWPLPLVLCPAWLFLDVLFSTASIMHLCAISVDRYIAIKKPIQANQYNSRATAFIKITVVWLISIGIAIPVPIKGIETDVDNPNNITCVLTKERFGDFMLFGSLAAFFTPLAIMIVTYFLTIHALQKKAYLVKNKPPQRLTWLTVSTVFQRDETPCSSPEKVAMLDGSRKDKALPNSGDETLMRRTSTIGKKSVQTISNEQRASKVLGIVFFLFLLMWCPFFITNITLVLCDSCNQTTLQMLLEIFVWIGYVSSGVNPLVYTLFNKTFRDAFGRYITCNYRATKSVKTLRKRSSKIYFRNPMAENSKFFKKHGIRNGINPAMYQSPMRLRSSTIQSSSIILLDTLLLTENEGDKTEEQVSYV
In short: as §1

5HT2C receptors [4] = molecular target: T2, 5HT2C receptors; assay: Human 5-HT2C functional assay in 1321N1 cells (intracellular calcium, FLIPR); format: cell-based; parameters: expressed in transfected cells; host or cells: 1321N1 cells; details: 5-HT2c agonist activity, maximum calcium response
In short: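 Intracellular calcium (Fluo-4, FLIPR peak response) was measured in stably transfected human 5-HT2C 1321N1 cells after overnight serum-free culture. Compounds were applied at final 10^−10 to 10^−5 M either alone or together with 10^−9 M serotonin. Half-maximal effect concentration was derived by four-parameter logistic fitting.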

[5] = 5-HT2B, maximum functional response as percentage relative to the effect of serotonin
[6] = 5-HT2C agonist activity, read-out: EC50
[7] = 5-HT2B agonist activity, read-out: EC50

| pEC50 (5HT2C receptors [3]; [6]) | Emax (5HT2C receptors [3]; CHO-K1, read-out: Emax) | pEC50 (5HT2B receptors; [7]) | SMILES | pKi [1] | pEC50 (5HT2C receptors [2]) | Emax (5HT2C receptors [3]) | pEC50 (5HT2C receptors [3]; EC50, 5-HT2C agonist activity) | Emax (5HT2B receptors; [5]) | pEC50 (5HT2B receptors; EC50, 5-HT2B agonist activity) | Emax (5HT2C receptors [3]; CHO-K1) | Emax (5HT2B receptors; CHO-K1) | pEC50 (5HT2C receptors [4]) |
| --- | --- | --- | --- | --- | --- | --- | --- | --- | --- | --- | --- | --- |
|  |  |  | O=C1NC[C@@H]2CNC[C@H]2c2cc(F)ccc21 (relative stereo) [Example 64, Trans-9-fluoro-1,2,3,3a,4,5-hexahydrobenzo[c]pyrrolo[3,4-e]azepin-6(10bH)-one] | 6.00 | 7.77 |  |  |  |  |  |  |  |
|  |  |  | O=C1NC[C@@H]2CNC[C@H]2c2cccc(F)c21 (single isomer, unassigned) [Example 62, Trans-7-fluoro-1,2,3,3a,4,5-hexahydrobenzo[e]pyrrolo[3,4-c]azepin-6(10bH)-one] | 8.09 | 9.52 | >120% | 8.92 | 80% | 6.15 |  |  |  |
| 6.70 | 120% | < 5.00 | O=C1NC[C@@H]2CN(Cc3ccccc3)C[C@H]2c2cc(F)ccc21 (relative stereo) [Example 63, Trans-2-benzyl-9-fluoro-1,2,3,3a,4,5-hexahydrobenzo[c]pyrrolo[3,4-e]azepin-6(10bH)-one] | 6.85 | 6.84 |  |  | inactive |  |  |  |  |
|  |  |  | c1ccc2c(c1)OCC[C@H]1CNC[C@@H]21 (relative stereo) [Example 96, Cis-2,3,3a,4,5,10b-hexahydro-1H-[1]benzoxepino[4,5-c]pyrrole] | 6.42 | 7.43 |  | 6.70 |  | 6.00 | 120% | 50% |  |
|  |  |  | CN1C[C@H]2CNC(=O)c3ccc(F)cc3[C@@H]2C1 (relative stereo) [Example 90, Trans-9-fluoro-2-methyl-1,2,3,3a,4,5-hexahydrobenzo[e]pyrrolo[3,4-c]azepin-6(10bH)-one] |  | 7.84 |  | 6.52 | inactive | < 5.00 | 85% |  |  |
|  |  |  | O=C1NC[C@@H]2CNC[C@H]2c2c(F)cccc21 (relative stereo) [Example 67, Trans-10-fluoro-1,2,3,3a,4,5-hexahydrobenzo[c]pyrrolo[3,4-e]azepin-6(10bH)-one] | 7.37 | 8.60 |  | 8.30 |  | 6.00 and < 5.00 | > 120% | 110% | 8.18 |
|  |  |  | CN1C[C@H]2CNC(=O)c3cc(F)ccc3[C@@H]2C1 (relative stereo) [Example 91, Trans-8-fluoro-2-methyl-1,2,3,3a,4,5-hexahydrobenzo[e]pyrrolo[3,4-c]azepin-6(10bH)-one] |  | 8.82 |  | 7.70 |  | 5.52 | > 120% | 25% |  |
|  |  |  | CN1C[C@H]2CNC(=O)c3cc(Cl)ccc3[C@@H]2C1 (relative stereo) [Example 53, Trans-8-chloro-2-methyl-1,2,3,3a,4,5-hexahydrobenzo[e]pyrrolo[3,4-c]azepin-6(10bH)-one] | 8.09 | 8.53 |  | 7.70 | inactive | < 5.00 | 100% |  |  |
|  |  |  | c1ccc2c(c1)OCC[C@H]1CNC[C@H]21 (relative stereo) [Example 94, Trans-2,3,3a,4,5,10b-hexahydro-1H-[1]benzoxepino[4,5-c]pyrrole] |  | 6.91 |  | 7.52 |  | 6.30 | > 120% | 45% |  |
| 7.00 | > 120% | < 5.00 | c1ccc(CN2C[C@@H]3CCOc4ccccc4[C@H]3C2)cc1 (relative stereo) [Example 93, Trans-2-benzyl-2,3,3a,4,5,10b-hexahydro-1H-[1]benzoxepino[4,5-c]pyrrole] |  | 8.36 |  |  | inactive |  |  |  |  |
|  |  |  | Clc1ccc2c(c1)[C@H]1CNC[C@@H]1CCO2 (relative stereo) [Example 95, Trans-9-chloro-2,3,3a,4,5,10b-hexahydro-1H-[1]benzoxepino[4,5-c]pyrrole] |  | 8.77 |  |  |  |  | > 120% | 35% |  |
| 8.15 | 110% | < 5.00 | CN1C[C@H]2CNC(=O)c3cc(-c4ccccc4)ccc3[C@@H]2C1 (relative stereo) [Example 86, Trans-2-methyl-8-phenyl-1,2,3,3a,4,5-hexahydrobenzo[e]pyrrolo[3,4-c]azepin-6(10bH)-one] |  | 8.43 |  |  | inactive |  |  |  |  |
